BindingDB's records for patent US20250136608 (Cgenetech (Suzhou, China) Co., 2025)
pIC50: −log10 of the molar value.

How the values were obtained:
[1] = target: Tyrosine-protein kinase JAK2 (Homo sapiens, UniProt O60674); experiment: JAK2 Kinase Inhibitory Activity Assay
[2] = target: T1, Tyrosine-protein kinase JAK3 (Homo sapiens, UniProt P52333); experiment: JAK3 Kinase Inhibitory Activity Assay
T1 sequence (P52333 whole entry): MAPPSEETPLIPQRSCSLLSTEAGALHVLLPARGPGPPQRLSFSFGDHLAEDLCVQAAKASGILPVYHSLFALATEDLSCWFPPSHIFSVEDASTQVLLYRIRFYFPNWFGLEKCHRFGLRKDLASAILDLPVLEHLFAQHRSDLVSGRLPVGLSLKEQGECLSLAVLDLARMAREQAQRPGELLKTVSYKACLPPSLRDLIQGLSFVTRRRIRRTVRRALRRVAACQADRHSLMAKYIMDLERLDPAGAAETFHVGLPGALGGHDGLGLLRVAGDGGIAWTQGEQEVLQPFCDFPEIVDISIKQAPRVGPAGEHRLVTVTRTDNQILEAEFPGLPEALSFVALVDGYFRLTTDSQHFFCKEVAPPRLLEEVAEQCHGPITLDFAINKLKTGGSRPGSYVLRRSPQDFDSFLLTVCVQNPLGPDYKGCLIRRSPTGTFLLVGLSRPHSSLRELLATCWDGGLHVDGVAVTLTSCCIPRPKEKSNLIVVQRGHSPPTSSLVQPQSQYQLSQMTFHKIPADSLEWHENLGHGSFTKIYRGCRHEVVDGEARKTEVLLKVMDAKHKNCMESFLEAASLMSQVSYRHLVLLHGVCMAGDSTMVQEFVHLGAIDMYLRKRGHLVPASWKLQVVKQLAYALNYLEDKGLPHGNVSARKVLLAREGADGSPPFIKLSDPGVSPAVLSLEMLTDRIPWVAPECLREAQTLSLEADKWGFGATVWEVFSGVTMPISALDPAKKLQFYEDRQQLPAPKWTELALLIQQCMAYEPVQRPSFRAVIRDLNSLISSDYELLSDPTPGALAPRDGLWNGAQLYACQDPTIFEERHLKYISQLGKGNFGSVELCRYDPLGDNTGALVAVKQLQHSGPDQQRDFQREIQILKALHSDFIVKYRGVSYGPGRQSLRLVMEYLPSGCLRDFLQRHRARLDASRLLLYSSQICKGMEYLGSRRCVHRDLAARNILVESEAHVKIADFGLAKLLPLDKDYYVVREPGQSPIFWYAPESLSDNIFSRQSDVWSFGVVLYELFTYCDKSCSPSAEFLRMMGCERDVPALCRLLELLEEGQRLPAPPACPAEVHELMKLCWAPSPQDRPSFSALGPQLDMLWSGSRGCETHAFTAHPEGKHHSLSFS

Chain of Tyrosine-protein kinase JAK2 (O60674 whole entry): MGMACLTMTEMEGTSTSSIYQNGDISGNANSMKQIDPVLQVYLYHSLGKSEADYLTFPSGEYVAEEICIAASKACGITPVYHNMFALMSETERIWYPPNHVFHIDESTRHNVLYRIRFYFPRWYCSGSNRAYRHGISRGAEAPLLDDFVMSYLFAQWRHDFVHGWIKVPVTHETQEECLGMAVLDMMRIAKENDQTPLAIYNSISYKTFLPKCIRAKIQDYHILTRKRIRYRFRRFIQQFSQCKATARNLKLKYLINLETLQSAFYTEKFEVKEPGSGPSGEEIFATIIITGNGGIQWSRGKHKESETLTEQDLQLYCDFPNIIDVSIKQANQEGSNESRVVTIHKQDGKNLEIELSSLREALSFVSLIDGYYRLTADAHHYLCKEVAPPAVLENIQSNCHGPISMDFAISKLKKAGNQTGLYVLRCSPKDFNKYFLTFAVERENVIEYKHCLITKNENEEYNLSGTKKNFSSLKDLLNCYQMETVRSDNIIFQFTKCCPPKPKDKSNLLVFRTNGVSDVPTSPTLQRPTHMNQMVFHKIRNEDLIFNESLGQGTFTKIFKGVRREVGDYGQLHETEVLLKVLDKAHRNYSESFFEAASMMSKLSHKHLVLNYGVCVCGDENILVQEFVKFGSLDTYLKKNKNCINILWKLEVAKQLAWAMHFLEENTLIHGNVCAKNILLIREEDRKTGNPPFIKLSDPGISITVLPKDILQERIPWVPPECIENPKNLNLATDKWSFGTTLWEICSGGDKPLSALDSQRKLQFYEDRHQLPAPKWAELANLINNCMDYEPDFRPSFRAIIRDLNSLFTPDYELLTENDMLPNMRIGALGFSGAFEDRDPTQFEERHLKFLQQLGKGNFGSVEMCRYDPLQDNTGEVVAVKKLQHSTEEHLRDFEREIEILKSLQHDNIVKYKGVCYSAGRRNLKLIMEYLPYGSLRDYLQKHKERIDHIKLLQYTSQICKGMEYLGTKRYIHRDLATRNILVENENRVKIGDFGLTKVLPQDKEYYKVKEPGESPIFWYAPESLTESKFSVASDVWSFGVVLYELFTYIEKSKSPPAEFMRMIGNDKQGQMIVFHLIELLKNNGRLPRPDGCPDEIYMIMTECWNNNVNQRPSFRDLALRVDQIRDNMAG

## N#CCC1(n2cc(-c3ncnc4[nH]ccc34)cn2)CCC(F)(F)CC1 [US20250136608, Compound 1]
[1]
  pIC50: 8.55
[2]
  pIC50: 6.62
